# Assay results as given in article PMC10452033, “The Importance of the “Time Factor” for the Evaluation of Inhibition Mechanisms: The Case of Selected HDAC6 Inhibitors” (Biology, 2023).
# Assays:
# [1] = tested on: HDAC6; conditions: cited from earlier work
# [2] = tested on: HDAC6 with respect to all other isoforms, including HDAC10; design: method as in PMID 36528061; conditions: cited from earlier work
# [3] = tested on: zebrafish HDAC6 CD2 (zHDAC6-CD2); design: method as in PMID 36528061; conditions: cited from earlier work
# [4] = biological target: T1, Human HDAC6 (GST-HDAC6) (Homo sapiens, UniProt Q9UBN7); test: Jump-dilution assay, kinetics of relief of inhibition of HDAC6
# T1 sequence (Q9UBN7 1-1215): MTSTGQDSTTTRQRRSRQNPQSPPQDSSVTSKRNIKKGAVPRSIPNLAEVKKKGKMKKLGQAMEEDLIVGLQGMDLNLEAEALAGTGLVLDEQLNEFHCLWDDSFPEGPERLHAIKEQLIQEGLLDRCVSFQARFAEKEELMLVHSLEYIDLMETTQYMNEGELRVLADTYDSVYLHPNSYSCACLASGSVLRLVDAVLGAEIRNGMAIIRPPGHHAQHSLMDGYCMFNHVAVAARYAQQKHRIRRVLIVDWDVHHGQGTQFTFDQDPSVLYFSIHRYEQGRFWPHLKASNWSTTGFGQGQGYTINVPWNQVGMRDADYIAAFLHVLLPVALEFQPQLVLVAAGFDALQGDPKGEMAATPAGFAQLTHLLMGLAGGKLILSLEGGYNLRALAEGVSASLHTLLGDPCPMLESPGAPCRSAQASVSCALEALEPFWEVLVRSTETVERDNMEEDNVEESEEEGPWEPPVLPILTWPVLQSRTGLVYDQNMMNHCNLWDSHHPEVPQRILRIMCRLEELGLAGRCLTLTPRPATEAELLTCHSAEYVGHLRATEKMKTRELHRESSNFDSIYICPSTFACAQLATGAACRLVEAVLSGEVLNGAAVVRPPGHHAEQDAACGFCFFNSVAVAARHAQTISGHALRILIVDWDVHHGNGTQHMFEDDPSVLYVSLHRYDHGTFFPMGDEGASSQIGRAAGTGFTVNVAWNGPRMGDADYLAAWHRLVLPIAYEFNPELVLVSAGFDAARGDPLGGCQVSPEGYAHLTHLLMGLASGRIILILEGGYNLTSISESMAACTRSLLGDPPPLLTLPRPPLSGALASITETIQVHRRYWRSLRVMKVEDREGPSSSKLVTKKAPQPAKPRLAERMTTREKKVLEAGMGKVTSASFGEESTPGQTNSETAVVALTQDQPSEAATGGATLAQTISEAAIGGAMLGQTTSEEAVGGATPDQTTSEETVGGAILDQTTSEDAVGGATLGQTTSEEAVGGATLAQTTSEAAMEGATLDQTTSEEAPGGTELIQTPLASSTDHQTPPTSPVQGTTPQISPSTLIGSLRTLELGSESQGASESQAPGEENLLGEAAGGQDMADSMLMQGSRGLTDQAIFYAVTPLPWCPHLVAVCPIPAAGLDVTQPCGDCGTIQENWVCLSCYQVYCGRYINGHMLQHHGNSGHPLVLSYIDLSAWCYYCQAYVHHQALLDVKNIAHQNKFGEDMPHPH
# Description: (§1) Human HDAC6, as a chimeric form in which the full-length protein is preceded by glutathione S-transferase (GST), was purchased from BPS Bioscience.
# From the slope of the lines and the intercepts (insets of Figure 1 E,G), one can calculate the apparent rate constants for formation of the inhibited complex and for its dissociation through Equation (4) (Table 1). Through Equation (5), the apparent dissociation constant of the EI complex could be calculated (Table 1). From jump-dilution assays of the type shown in Figure 1, right panels, the koff was independently calculated through Equation (2) (or from the linear part of the curves) in the presence of saturating substrate, to minimize the possibility that the inhibitor rebinds to the enzyme after dissociation (Table 1).
# Panels (A,C,E,G): kinetics of onset of inhibition. […] Aliquots of reactions were stopped at different times with TSA and subsequently developed, as described in detailed methods in Supplementary information. […] The data were fitted to Equation (2) to determine the steady-state velocity values (vs), which were used to calculate IC50 and kobs (Table 1). The initial velocity was set to the value measured in the absence of the inhibitor. […] They were used to determine the mechanism of slow-binding inhibition, and estimates of kon, koff and Ki (Table 1). […]
# [5] = biological target: T1, Human HDAC6 (GST-HDAC6); test: Kinetics of onset of inhibition of HDAC6, progress curves with Fluor de Lys Green substrate; conditions: for slope factor (s): slope factor of the IC50 fit, Equation (1)
# Description: as §1
# The activity assay described here is based on the use of the commercially available Fluor de Lys Green substrate, which contains an acetylated lysine residue covalently bound through an amide bond to the amino group of a fluorophore, likely a rhodamine derivative. Deacetylation of the lysine residue makes the amide bond susceptible to trypsin cleavage with release of the fluorophore that is accompanied by fluorescence increase.
# For activity assays in the absence of inhibitors, measured fluorescence values at different reaction times, after subtraction of the background fluorescence, were analyzed to determine the initial velocity of reactions from the initial linear part of the curve. […] If the onset and relief of inhibition were sufficiently fast, compared to the time of the assay, the steady-state velocity could be calculated from the linear part of the progress curve at long reaction times. […] Thus, we could calculate apparent values of kon (the second-order rate constant for formation of the enzyme–inhibitor complex) and koff (the first-order rate constant for dissociation of the enzyme–inhibitor complex) for a simple E + I ↔ EI equilibrium from Equation (4). From the observed rates of complex formation and dissociation, an apparent dissociation constant of the complex could be calculated (Equation (5); [31, 40]). kobs = kon^app [I] + koff (4) Ki^app = koff/kon^app (5)
# The steady-state velocities were used to estimate the IC50 and cooperativity (if any) from the “slope factor” (s) by calculating the percentage residual activity as a function of inhibitor concentration, and fitting to Equation (1).
# From jump-dilution assays of the type shown in Figure 1, right panels, the koff was independently calculated through Equation (2) (or from the linear part of the curves) in the presence of saturating substrate, to minimize the possibility that the inhibitor rebinds to the enzyme after dissociation (Table 1).
# Aliquots of reactions were stopped at different times with TSA and subsequently developed, as described in detailed methods in Supplementary information. […] The data were fitted to Equation (2) to determine the steady-state velocity values (vs), which were used to calculate IC50 and kobs (Table 1). The initial velocity was set to the value measured in the absence of the inhibitor.
# [6] = biological target: T2, Human HDAC6 (Homo sapiens, UniProt Q9UBN7); test: Yonetani-Theorell analysis of the binding of ITF2357 and ITF3756 to HDAC6; format: biochemical; conditions: with respect to the Fluor de Lys substrate; parallel lines in Yonetani-Theorell plots
# T2 sequence (Q9UBN7 1-1215): T1 sequence (Q9UBN7 1-1215)
# Description: Enzymes. Human HDAC6, as a chimeric form in which the full-length protein is preceded by glutathione S-transferase (GST), was purchased from BPS Bioscience.
# In this analysis, the substrate concentration (S) is maintained constant at a sub-saturating concentration, and the concentration of one inhibitor (I) is varied in the presence of different levels of the second (J). The reaction velocity at a given I and J concentration pair (vij) depends on the corresponding inhibition constants (KI and KJ) and an interaction factor γ (Equation (7)). If I and J bind to the same site on the enzyme in a mutually exclusive way, the plots of reciprocal velocity as a function of the varied inhibitor concentration, at different constant levels of the second, yield a set of parallel lines because the interaction factor γ→∞ (Equation (8)). In this case, the common slope (Equation (9)) depends on the velocity of the uninhibited reaction (vo) and the dissociation constant of the varying inhibitor (KI). The dependence of the intercepts on the concentration of the inhibitor kept constant at different levels (J) should be linear (Equation (10)). The initial velocity of the inhibited enzyme, and the inhibition constants KI and KJ can be calculated. […]
# The time-course of reactions was monitored to calculate the steady-state velocity from the linear part of the curve. […]
molecule,measurement,setting,value
FC(F)c1nnc(-c2ccc(Cn3cc(-c4ccc(NC5=NCCN5)cc4)nn3)cc2)o1 [Compound 1],IC50,[1],7.7 nM
same,selectivity for HDAC6 with respect to all other isoforms,[2],greater than 10^4
same,observed rate constant for the release from the enzyme in jump-dilution assays,[3],(9.6 ± 1.1) × 10^−3 min^−1
same,rate constant for formation of the acyl-hydrazide from Compound 1,[3],(6.04 ± 0.22)×10^−3 min^−1
same,koff,[4],0.000108 s⁻¹
same,Ki,[5],8.9 ± 0.23 nM
same,koff,[5],8.33e-05 s⁻¹
same,kon,[5]; read-out: kon^app,9330 M⁻¹ s⁻¹
same,slope factor (s),[5],0.96 ± 0.04
"[R-(E,E)]-7-[4-(Dimethylamino)phenyl]-N-hydroxy-4,6-dimethyl-7-oxo-2,4-heptadienamide [TSA, reference compound]",apparent koff,"[4]; pre-incubated with 10 nM TSA for 90 min, 100-fold dilution, 25 µM Fluor-de-Lys Green",0.032 ± 0.008 min‐1
same,kinetic behaviour of onset and relief of inhibition,[5]; progress curves and jump-dilution assays,Slow binding
NNC(=O)c1ccc(Cn2cc(-c3ccc(NC4=NCCN4)cc3)nn2)cc1 [Compound 1b],IC50,[1],329 nM
O=C(NNC(=O)C(F)F)c1ccc(Cn2cc(-c3ccc(NC4=NCCN4)cc3)nn2)cc1 [Compound 1a],IC50,[1],1580 nM
"CCN(CC)Cc1ccc2cc(COC(=O)Nc3ccc(C(=O)NO)cc3)ccc2c1 [ITF2357, reference compound]",mechanism of inhibition,[6],competitive inhibitor
same,time after start of reaction at which steady-state velocity was reached,[5]; reaction started by addition of the enzyme,approximately 15 min
same,slope factor (s),[5],1.0 ± 0.06
